Measurements from the NIST ThermoML archive (doi:10.1016/j.jct.2012.03.003).

Test: xn = mol fraction of the nth substance listed
Conditions: Liquid, Vibrating tube method

COc1cc2c(cc1O)CC1c3c(cc(O)c(OC)c3-2)CCN1C (stereo not given) [boldine] + CCO
Conditions | mass density [kg/m3]
352.81 K, 16000 kPa, x1 = 0.0012 | 755.72
352.81 K, 16000 kPa, x1 = 0.0136 | 781.95
352.81 K, 17000 kPa, x1 = 0.0012 | 756.73
352.81 K, 17000 kPa, x1 = 0.0136 | 782.94
352.81 K, 18000 kPa, x1 = 0.0012 | 757.73
352.81 K, 18000 kPa, x1 = 0.0136 | 783.9
352.81 K, 19000 kPa, x1 = 0.0012 | 758.72
352.81 K, 19000 kPa, x1 = 0.0136 | 784.85
352.81 K, 20000 kPa, x1 = 0.0012 | 759.69
352.81 K, 20000 kPa, x1 = 0.0136 | 785.8
352.82 K, 1000 kPa, x1 = 0.0267 | 792.92
352.82 K, 2000 kPa, x1 = 0.0267 | 794.02
352.82 K, 3000 kPa, x1 = 0.0267 | 795.11
352.82 K, 4000 kPa, x1 = 0.0267 | 796.19
352.82 K, 5000 kPa, x1 = 0.0267 | 797.27
352.82 K, 6000 kPa, x1 = 0.0267 | 798.34
352.82 K, 7000 kPa, x1 = 0.0267 | 799.39
352.82 K, 8000 kPa, x1 = 0.0267 | 800.44
352.82 K, 9000 kPa, x1 = 0.0267 | 801.49
352.82 K, 10000 kPa, x1 = 0.0267 | 802.51
352.82 K, 11000 kPa, x1 = 0.0267 | 803.53
352.82 K, 12000 kPa, x1 = 0.0267 | 804.54
352.82 K, 13000 kPa, x1 = 0.0267 | 805.54
352.82 K, 14000 kPa, x1 = 0.0267 | 806.51
352.82 K, 15000 kPa, x1 = 0.0267 | 807.49
352.82 K, 16000 kPa, x1 = 0.0267 | 808.44
352.82 K, 17000 kPa, x1 = 0.0267 | 809.38
352.82 K, 18000 kPa, x1 = 0.0267 | 810.32
352.82 K, 19000 kPa, x1 = 0.0267 | 811.24
352.82 K, 20000 kPa, x1 = 0.0267 | 812.14
352.88 K, 1000 kPa, x1 = 0.0074 | 751.94
352.88 K, 2000 kPa, x1 = 0.0074 | 753.18
352.88 K, 3000 kPa, x1 = 0.0074 | 754.29
352.88 K, 4000 kPa, x1 = 0.0074 | 755.45
352.88 K, 5000 kPa, x1 = 0.0074 | 756.6
352.88 K, 6000 kPa, x1 = 0.0074 | 757.75
352.88 K, 7000 kPa, x1 = 0.0074 | 758.88
352.88 K, 8000 kPa, x1 = 0.0074 | 760.01
352.88 K, 9000 kPa, x1 = 0.0074 | 761.12
352.88 K, 10000 kPa, x1 = 0.0074 | 762.21
352.88 K, 11000 kPa, x1 = 0.0074 | 763.3
352.88 K, 12000 kPa, x1 = 0.0074 | 764.38
352.88 K, 13000 kPa, x1 = 0.0074 | 765.43
352.88 K, 14000 kPa, x1 = 0.0074 | 766.48
352.88 K, 15000 kPa, x1 = 0.0074 | 767.51
352.88 K, 16000 kPa, x1 = 0.0074 | 768.53
352.88 K, 17000 kPa, x1 = 0.0074 | 769.53
352.88 K, 18000 kPa, x1 = 0.0074 | 770.52
352.88 K, 19000 kPa, x1 = 0.0074 | 771.48
352.88 K, 20000 kPa, x1 = 0.0074 | 772.43
362.76 K, 1000 kPa, x1 = 0.0196 | 770.85
362.76 K, 2000 kPa, x1 = 0.0196 | 772.05
362.76 K, 3000 kPa, x1 = 0.0196 | 773.24
362.76 K, 4000 kPa, x1 = 0.0196 | 774.43
362.76 K, 5000 kPa, x1 = 0.0196 | 775.6
362.76 K, 6000 kPa, x1 = 0.0196 | 776.76
362.76 K, 7000 kPa, x1 = 0.0196 | 777.92
362.76 K, 8000 kPa, x1 = 0.0196 | 779.06
362.76 K, 9000 kPa, x1 = 0.0196 | 780.2
362.76 K, 10000 kPa, x1 = 0.0196 | 781.28
362.76 K, 11000 kPa, x1 = 0.0196 | 782.39
362.76 K, 12000 kPa, x1 = 0.0196 | 783.48
362.76 K, 13000 kPa, x1 = 0.0196 | 784.55
362.76 K, 14000 kPa, x1 = 0.0196 | 785.61
362.76 K, 15000 kPa, x1 = 0.0196 | 786.65
362.76 K, 16000 kPa, x1 = 0.0196 | 787.68
362.76 K, 17000 kPa, x1 = 0.0196 | 788.71
362.76 K, 18000 kPa, x1 = 0.0196 | 789.69
362.76 K, 19000 kPa, x1 = 0.0196 | 790.66
362.76 K, 20000 kPa, x1 = 0.0196 | 791.63
362.77 K, 1000 kPa, x1 = 0.0136 | 755.74
362.77 K, 1000 kPa, x1 = 0.0267 | 783.02
362.77 K, 2000 kPa, x1 = 0.0136 | 756.99
362.77 K, 2000 kPa, x1 = 0.0267 | 784.19
362.77 K, 3000 kPa, x1 = 0.0136 | 758.22
362.77 K, 3000 kPa, x1 = 0.0267 | 785.37
362.77 K, 4000 kPa, x1 = 0.0136 | 759.44
362.77 K, 4000 kPa, x1 = 0.0267 | 786.53
362.77 K, 5000 kPa, x1 = 0.0136 | 760.66
362.77 K, 5000 kPa, x1 = 0.0267 | 787.67
362.77 K, 6000 kPa, x1 = 0.0136 | 761.86
362.77 K, 6000 kPa, x1 = 0.0267 | 788.81
362.77 K, 7000 kPa, x1 = 0.0136 | 763.05
362.77 K, 7000 kPa, x1 = 0.0267 | 789.94
362.77 K, 8000 kPa, x1 = 0.0136 | 764.22
362.77 K, 8000 kPa, x1 = 0.0267 | 791.05
362.77 K, 9000 kPa, x1 = 0.0136 | 765.39
362.77 K, 9000 kPa, x1 = 0.0267 | 792.16
362.77 K, 10000 kPa, x1 = 0.0136 | 766.54
362.77 K, 10000 kPa, x1 = 0.0267 | 793.25
362.77 K, 11000 kPa, x1 = 0.0136 | 767.67
362.77 K, 11000 kPa, x1 = 0.0267 | 794.34
362.77 K, 12000 kPa, x1 = 0.0136 | 768.79
362.77 K, 12000 kPa, x1 = 0.0267 | 795.38
362.77 K, 13000 kPa, x1 = 0.0136 | 769.9
362.77 K, 13000 kPa, x1 = 0.0267 | 796.43
362.77 K, 14000 kPa, x1 = 0.0136 | 770.98
362.77 K, 14000 kPa, x1 = 0.0267 | 797.48
362.77 K, 15000 kPa, x1 = 0.0136 | 772.08
362.77 K, 15000 kPa, x1 = 0.0267 | 798.5
362.77 K, 16000 kPa, x1 = 0.0136 | 773.14
362.77 K, 16000 kPa, x1 = 0.0267 | 799.5
362.77 K, 17000 kPa, x1 = 0.0136 | 774.19
362.77 K, 17000 kPa, x1 = 0.0267 | 800.5
362.77 K, 18000 kPa, x1 = 0.0136 | 775.2
362.77 K, 18000 kPa, x1 = 0.0267 | 801.48
362.77 K, 19000 kPa, x1 = 0.0136 | 776.22
362.77 K, 19000 kPa, x1 = 0.0267 | 802.44
362.77 K, 20000 kPa, x1 = 0.0136 | 777.21
362.77 K, 20000 kPa, x1 = 0.0267 | 803.41
362.78 K, 1000 kPa, x1 = 0.0012 | 728.71
362.78 K, 2000 kPa, x1 = 0.0012 | 730.01
362.78 K, 3000 kPa, x1 = 0.0012 | 731.31
362.78 K, 4000 kPa, x1 = 0.0012 | 732.6
362.78 K, 5000 kPa, x1 = 0.0012 | 733.87
362.78 K, 6000 kPa, x1 = 0.0012 | 735.12
362.78 K, 7000 kPa, x1 = 0.0012 | 736.36
362.78 K, 8000 kPa, x1 = 0.0012 | 737.59
362.78 K, 9000 kPa, x1 = 0.0012 | 738.8
362.78 K, 10000 kPa, x1 = 0.0012 | 739.99
362.78 K, 11000 kPa, x1 = 0.0012 | 741.18
362.78 K, 12000 kPa, x1 = 0.0012 | 742.33
362.78 K, 13000 kPa, x1 = 0.0012 | 743.48
362.78 K, 14000 kPa, x1 = 0.0012 | 744.62
362.78 K, 15000 kPa, x1 = 0.0012 | 745.73
362.78 K, 16000 kPa, x1 = 0.0012 | 746.83
362.78 K, 17000 kPa, x1 = 0.0012 | 747.9
362.78 K, 18000 kPa, x1 = 0.0012 | 748.97
362.78 K, 19000 kPa, x1 = 0.0012 | 750.01
362.78 K, 20000 kPa, x1 = 0.0012 | 751.05
362.87 K, 1000 kPa, x1 = 0.0074 | 741.96
362.87 K, 2000 kPa, x1 = 0.0074 | 743.24
362.87 K, 3000 kPa, x1 = 0.0074 | 744.5
362.87 K, 4000 kPa, x1 = 0.0074 | 745.75
362.87 K, 5000 kPa, x1 = 0.0074 | 746.98
362.87 K, 6000 kPa, x1 = 0.0074 | 748.21
362.87 K, 7000 kPa, x1 = 0.0074 | 749.43
362.87 K, 8000 kPa, x1 = 0.0074 | 750.63
362.87 K, 9000 kPa, x1 = 0.0074 | 751.81
362.87 K, 10000 kPa, x1 = 0.0074 | 752.98
362.87 K, 11000 kPa, x1 = 0.0074 | 754.12
362.87 K, 12000 kPa, x1 = 0.0074 | 755.27
362.87 K, 13000 kPa, x1 = 0.0074 | 756.39
362.87 K, 14000 kPa, x1 = 0.0074 | 757.5
362.87 K, 15000 kPa, x1 = 0.0074 | 758.59
362.87 K, 16000 kPa, x1 = 0.0074 | 759.65
362.87 K, 17000 kPa, x1 = 0.0074 | 760.72
362.87 K, 18000 kPa, x1 = 0.0074 | 761.76
362.87 K, 19000 kPa, x1 = 0.0074 | 762.79
362.87 K, 20000 kPa, x1 = 0.0074 | 763.81
